Columns and labels:
[1] = system: PNT1B-MOCK cells; experiment: pETS-luc luciferase assay in PNT1B-MOCK cells (non-specific effect); assay type: cell-based, human; conditions: increasing concentrations, 48 h; compared to PNT1B-ERG cells
Method: All of the compounds selected from the virtual screening were tested in a luciferase-based ERG-responsive reporter assay, using two ERG-overexpressing cell lines, VCaP and PNT1B-ERG, previously developed in house. […] Data were normalized first to Renilla luciferase and then to the DMSO-media control on each plate, unless otherwise stated. Initial hit compounds were identified as those with an average normalized luciferase reading (firefly luciferase/Renilla luciferase readings) that is 60% or less of the average normalized luciferase reading of the DMSO-media control (i.e. 40% or more reduction of luciferase activity) at 10 μM. Representative example of raw Renilla luciferase readings presented in Supplementary Figure 9B. […]
Supplementary Figure 3: VPC-18005 selectively suppresses ERG-mediated transcriptional activity. […] Data are presented as the mean ± SEM of 4 technical replicates and expressed as luciferase:renilla ratio (activity).
(B) Luciferase assay was performed on VCaP cells transfected with ETS responsive luciferase reporter and treated with DMSO (0) or 0.1, 1, or 10 nM R1881 in the presence of 25 μM of VPC-18005. Data are presented as the mean ± SEM of 4 technical replicates and expressed as the luciferase:renilla ratio relative to VPC-18005 alone. […]

[2] = system: RWPE-ERG cells; experiment: Real time cell migration (xCELLigence), RWPE-ERG; assay type: cell-based; conditions: 5 µM; compared to MOCK control
Method: Cell migration was monitored using CIM-16 migration plates via the xCELLigence platform (ACEA). FBS-supplemented media (160 μL) was added to the lower chamber of the plate and incubated at RT for 30 min. The upper chamber was then mounted and 30 μL of serum free media (SFM) was added to each well and left to equilibrate in the incubator for 1 h at 37°C. After the incubation, a background reading was taken for each well. […] Real time readings of cell index values were recorded initially every 5 min until the end of the experiment (48 hr). page 8: Supplementary Figure 4: VPC-18005 suppresses migration, but not growth of RWPE-1-ERG cells. (A) Cell viability (MTS) of ERG-expressing cells (RWPE-ERG) (closed circle) and non-ERG expressing cells (RWPE-MOCK (open square)) after treatment […] Impact on viability is presented as the mean ± SEM […] (B) RWPE-1-Mock or (C) […] The normalized cell index is a measure of the migration of the cells through the pores of the upper chamber and is used as the migration index. Dotted lines represent 1 standard deviation (SD) of the mean migration rate.

[3] = Murine pharmacodynamics and toxicology studies; assay type: in vivo, mice
Method: Supplementary Figure 10: (A) In a preliminary study to evaluate in vivo toxicity and establish working oral (PO) doses, Nu/nu mice (n = 4) received a single PO dose of VPC-18005 (100 mg/kg or 500 mg/kg) dissolved in cyclodextrin. Blood was collected directly after injection and at the times indicated. Serum concentration of VPC-18005 was determined for each time point. (B) In a 4 week “repeated dose” study, body weight was measured daily for mice (n = 4) that received a daily dose of VPC-18005 (150 mg/kg BID) dissolved 50% ethanol (PO) or 50% ethanol (Vehicle). Change in weight of each animal was normalized to starting pretreatment weight. (C) Cytotoxicity serum markers of vehicle and VPC-18005 treated animals described in B) were determined and presented as average (Avg. Conc.) and standard deviation (SD) with corresponding paired t-test p values. LC-MS analysis of serum indicators of major organ toxicity (albumin (ALB), alkaline phosphatase (ALP) and alanine aminotransferase (ALT) as indicators of liver dysfunction, amylase (AMY) to test for acute pancreatitis, total bilirubin (TBIL) to assess jaundice, and blood urea nitrogen (BUN) to assess kidney function from endpoint samples

[4] = system: VCaP cells; design: method as in PMID 21559405; conditions: read-out: IC50 for cytotoxicity in VCaP cells; cited from earlier work

Row | SMILES | Impact on the reporter signal in PNT1B-MOCK [1] | Effect on RWPE-ERG cell migration [2] | Solubility, stability and oral bioavailability in mice ([3]; Nu/nu mice, PO) | Serum indicators of major organ toxicity (ALB, ALP, ALT, AMY, TBIL, BUN) ([3]; mice, 150 mg/kg BID, 4 weeks, endpoint samples) | General toxicity, repeated dose ([3]; mice, 4 week BID at 150 mg/kg PO) | General toxicity, single dose ([3]; mice, single doses of up to 500 mg/kg PO) | IC50 [4]
1 | CC(C)c1ccc(C=N/N=C2\NC(=O)[C@@H](CC(=O)O)S2)cc1 (stereo in doubt) [VPC-18005, 2-((Z)-2-(((Z)-4-isopropylbenzylidene)hydrazono)-4-oxothiazolidin-5-yl)acetic acid] | minimal impact | moderate effect | soluble, stable and orally bioavailable | no significant impact | does not exhibit general toxicity | does not exhibit general toxicity | –
2 | COc1ccc(C(=O)CC2(O)C(=O)Nc3c(Cl)ccc(Cl)c32)cc1 (stereo not shown) [YK-4-279, reference compound] | – | – | – | – | – | – | 10 µM
